Assay results: patent US3985779A, “M-phenoxyphenyl propionic acid derivatives and preparation thereof” (Eisai Co., Ltd., priority 1973, dated 1976)

Tests used:
[1] = system: Carrageenin-induced edema; assay: Inhibitory activity on Carrageenin-induced Edema in rats (Experiment A); format: in vivo, rats (male Wistar); conditions: 3 hours after Carrageenin
Procedure: Inhibitory activity on Carrageenin-induced Edema in rats
Carrageenin was used as the agent for inducing edema and 5 male rats of Wistar strain having body weight of about 150 grs. after fasting for 16-17 hours were used as test animals. The inhibitory activity of the test compounds were determined with the paw edema method in accordance with Winter C. A. et al; Proc. Soc. Exp. Biol. Med. 111, 544 (1962).
The compounds were suspended in an aqueous solution of gum arabic and the same were orally administered to the rats at 1 hour before the injection of Carrageenin.
The observation was effected by measuring, after 3 hours the administration of the Carrageenin, the enlarged volumes of hind paw of the rats.

Kaolin-induced edema = assay: Inhibitory activity on Kaolin-induced Edema in Rats (Experiment B); format: in vivo
Dextran-induced edema = assay: Inhibitory activity on dextran-induced edema in rats (Experiment C); format: in vivo
Procedure: Inhibitory activity on dextran-induced edema in rats Experiment was carried out in the manner same as those of the preceding Experiments in which dextran was employed as irritant substance.

ARRS-induced edema = assay: Inhibitory activity on anti-rat-rabbit serum (ARRS)-induced edema in rats (Experiment D); format: in vivo
Procedure: Inhibitory activity on anti-rat-rabbit serum (ARRS)-induced edema in rats Similar Experiments was carried out by using ARRS as irritant substance.

SMILES: CC(C(=O)O)c1cccc(Oc2ccc(Cl)cc2)c1 (stereo not drawn) [(3), 2-[m-(p-chlorophenoxy)phenyl]propionic acid]
- % of Inhibition ([1]; oral 3.2 mg/kg): 20%
- Edema density ± S.E. ([1]; oral 3.2 mg/kg): .430 ± .068
- % of Inhibition ([1]; oral 80.0 mg/kg): 38%
- Edema density ± S.E. ([1]; oral 80.0 mg/kg): .334 ± .055
- Edema D. ± S.E. (Kaolin-induced edema; after 3 hrs, oral 16 mg/kg): .418 ± .024
- % of Inhibition (Kaolin-induced edema; after 3 hrs, oral 80 mg/kg): 29%
- Edema D. ± S.E. (Kaolin-induced edema; after 3 hrs, oral 80 mg/kg): .297 ± .085
- % of Inhibition (Kaolin-induced edema; after 5 hrs, oral 16 mg/kg): 13%
- Edema D. ± S.E. (Kaolin-induced edema; after 5 hrs, oral 16 mg/kg): .491 ± .021
- % of Inhibition (Kaolin-induced edema; after 5 hrs, oral 80 mg/kg): 40%
- Edema D. ± S.E. (Kaolin-induced edema; after 5 hrs, oral 80 mg/kg): .340 ± .107
- % of Inhibition (Kaolin-induced edema; after 7 hrs, oral 16 mg/kg): 14%
- Edema D. ± S.E. (Kaolin-induced edema; after 7 hrs, oral 16 mg/kg): .524 ± .037
- % of Inhibition (Kaolin-induced edema; after 7 hrs, oral 80 mg/kg): 27%
- Edema D. ± S.E. (Kaolin-induced edema; after 7 hrs, oral 80 mg/kg): .442 ± .119
- % of Inhibition (Dextran-induced edema; after 2 hrs, oral 16 mg/kg): 6%
- Edema D. ± S.E. (Dextran-induced edema; after 2 hrs, oral 16 mg/kg): .782 ± .062
- % of Inhibition (Dextran-induced edema; after 2 hrs, oral 80 mg/kg): 7%
- Edema D. ± S.E. (Dextran-induced edema; after 2 hrs, oral 80 mg/kg): .776 ± .022
- % of Inhibition (Dextran-induced edema; after 3 hrs, oral 16 mg/kg): 5%
- Edema D. ± S.E. (Dextran-induced edema; after 3 hrs, oral 16 mg/kg): .713 ± .036
- % of Inhibition (Dextran-induced edema; after 3 hrs, oral 80 mg/kg): 4%
- Edema D. ± S.E. (Dextran-induced edema; after 3 hrs, oral 80 mg/kg): .723 ± .027
- % of Inhibition (ARRS-induced edema; after 2 hrs, oral 16 mg/kg): 10%
- Edema D. ± S.E. (ARRS-induced edema; after 2 hrs, oral 16 mg/kg): .613 ± .054
- % of Inhibition (ARRS-induced edema; after 2 hrs, oral 80 mg/kg): 1%
- Edema D. ± S.E. (ARRS-induced edema; after 2 hrs, oral 80 mg/kg): .672 ± .036
- % of Inhibition (ARRS-induced edema; after 3 hrs, oral 16 mg/kg): 16%
- Edema D. ± S.E. (ARRS-induced edema; after 3 hrs, oral 16 mg/kg): .599 ± .065
- % of Inhibition (ARRS-induced edema; after 3 hrs, oral 80 mg/kg): 11%
- Edema D. ± S.E. (ARRS-induced edema; after 3 hrs, oral 80 mg/kg): .634 ± .016

SMILES: CC(C(=O)O)c1cccc(Oc2ccc(Cl)cc2)c1 (stereo not drawn) [(4)]
- % of Inhibition ([1]; oral 8.0 mg/kg): 12%
- Edema density ± S.E. ([1]; oral 8.0 mg/kg): .477 ± .049
- % of Inhibition ([1]; oral 40.0 mg/kg): 46%
- Edema density ± S.E. ([1]; oral 40.0 mg/kg): .293 ± .056
- % of Inhibition (Kaolin-induced edema; after 3 hrs, oral 8 mg/kg): 12%
- Edema D. ± S.E. (Kaolin-induced edema; after 3 hrs, oral 8 mg/kg): .369 ± .048
- % of Inhibition (Kaolin-induced edema; after 3 hrs, oral 40 mg/kg): 35%
- Edema D. ± S.E. (Kaolin-induced edema; after 3 hrs, oral 40 mg/kg): .271 ± .075
- % of Inhibition (Kaolin-induced edema; after 5 hrs, oral 8 mg/kg): 8%
- Edema D. ± S.E. (Kaolin-induced edema; after 5 hrs, oral 8 mg/kg): .519 ± .035
- % of Inhibition (Kaolin-induced edema; after 5 hrs, oral 40 mg/kg): 41%
- Edema D. ± S.E. (Kaolin-induced edema; after 5 hrs, oral 40 mg/kg): .333 ± .073
- % of Inhibition (Kaolin-induced edema; after 7 hrs, oral 8 mg/kg): -3%
- Edema D. ± S.E. (Kaolin-induced edema; after 7 hrs, oral 8 mg/kg): .625 ± .040
- % of Inhibition (Kaolin-induced edema; after 7 hrs, oral 40 mg/kg): 35%
- Edema D. ± S.E. (Kaolin-induced edema; after 7 hrs, oral 40 mg/kg): .396 ± .072
- % of Inhibition (Dextran-induced edema; after 2 hrs, oral 8 mg/kg): 10%
- Edema D. ± S.E. (Dextran-induced edema; after 2 hrs, oral 8 mg/kg): .753 ± .052
- % of Inhibition (Dextran-induced edema; after 2 hrs, oral 40 mg/kg): 6%
- Edema D. ± S.E. (Dextran-induced edema; after 2 hrs, oral 40 mg/kg): .780 ± .033
- % of Inhibition (Dextran-induced edema; after 3 hrs, oral 8 mg/kg): 10%
- Edema D. ± S.E. (Dextran-induced edema; after 3 hrs, oral 8 mg/kg): .780 ± .033
- % of Inhibition (Dextran-induced edema; after 3 hrs, oral 40 mg/kg): 8%
- Edema D. ± S.E. (Dextran-induced edema; after 3 hrs, oral 40 mg/kg): .692 ± .048
- % of Inhibition (ARRS-induced edema; after 2 hrs, oral 8 mg/kg): 5%
- Edema D. ± S.E. (ARRS-induced edema; after 2 hrs, oral 8 mg/kg): .649 ± .032
- % of Inhibition (ARRS-induced edema; after 2 hrs, oral 40 mg/kg): 17%
- Edema D. ± S.E. (ARRS-induced edema; after 2 hrs, oral 40 mg/kg): .563 ± .016
- % of Inhibition (ARRS-induced edema; after 3 hrs, oral 8 mg/kg): 13%
- Edema D. ± S.E. (ARRS-induced edema; after 3 hrs, oral 8 mg/kg): .621 ± .058
- % of Inhibition (ARRS-induced edema; after 3 hrs, oral 40 mg/kg): 25%
- Edema D. ± S.E. (ARRS-induced edema; after 3 hrs, oral 40 mg/kg): .535 ± .027
